Tests used:
[1] = tested on: naloxone-precipitated morphine withdrawal in mice; assay: Acute morphine physical dependence (naloxone-precipitated jumping); type: in vivo, mouse; details: morphine 100 mg/kg s.c. −4 hr; M119 100 nmol i.c.v. 30 min before naloxone 10 mg/kg i.p.
Protocol: Prior to the administration of naloxone (30 min) mice were injected with vehicle, i.c.v. Withdrawal was precipitated by an injection of the opioid antagonist, naloxone (10 mg/kg, i.p.). Mice were immediately placed in a clear cylinder and observed for 15 min. The number of vertical jumps was recorded during this time.

[2] = tested on: ERK1 and ERK2 activation in differentiated HL60 cells; assay: fMLP-induced ERK1 and ERK2 activation in differentiated HL60 cells; type: cell-based, human; details: 10 μM compound, 1 μM fMLP, result in words
Protocol: Cells were pretreated with DMSO or 10 μM compounds for 5 min prior to stimulation with 250 nM fMLP. […] Normalized peak Ca^2+ responses were pooled from three independent experiments each (mean±SEM). Cells were pretreated with DMSO (▪) or compounds (▴) for 5 min prior to stimulation. FIG. 5C is the same as A except 10 μM M201 was tested. […] Differentiated HL60 cells were treated with 10 μM compound prior to stimulation with 250 nM fMLP. Translocation of endogenous GRK2 was determined by Western blotting with a GRK2 antibody and quantitative chemiluminescence. Data are mean±SEM from 5 experiments, * P<0.05, **P<0.01 ANOVA. […] Differentiated HL60 cells stably over-expressing GFP-PHAkt were treated with 10 μM compound prior to stimulation with 100 nM fMLP. Translocation of GFP-PHAkt to the membrane was determined by Western blotting with an anti-GFP antibody and quantitative chemiluminescence. Data are mean±SEM from 4 experiments. *** P<0.001 ANOVA. […] Differentiated HL60 cells were pretreated with 10 μM of compound prior to stimulation with 1 μM fMLP for 5 min. Levels of phosphorylated and total ERK were determined by Western blotting.

PLCβ3-bGβ1γ2 interaction = biological target: T1, PLCβ3-bGβ1γ2 interaction (UniProt P54311+P63212); assay: PLCβ3 binding to biotinylated Gβ1γ2 (avidin agarose precipitation); details: M119 10 μM, M201 1 μM; result in words
T1 construct: made in house; host or cells: bGβ1γ2: Sf9 insect cells
Protocol: Purified PLCβ2 (0.25 ng) was assayed in the presence (▴) or absence (▪) of 100 nM purified Gβ1γ2. […] Assays contained 10 ng of purified p101/p110 PI3Kγ heterodimer with or without 100 nM purified Gβ1γ2. Left panel: (▴) 100 nM Gβ1γ2 or (▪) no βγ. […] M119 or M201 and 25 nM purified GRK2 were added simultaneously to 250 nM biotinylated Gβ1γ2 (bGβ1γ2) immobilized on streptavidin agarose. GRK2 was detected with antibody to GRK2. Data are representative (mean ±SEM, except D) repeated at least three times each. […] 30 nM bGβ1γ2 was incubated with either 30 nM PLCβ2 or PLCβ3 in the presence or absence of M119 or M201 for 16 h at 4° C. before precipitation with avidin agarose and detection with PLCβ2,or Gβ antibodies. […] Same as 4E with PLCβ3.

T1 sequence (P54311 whole entry): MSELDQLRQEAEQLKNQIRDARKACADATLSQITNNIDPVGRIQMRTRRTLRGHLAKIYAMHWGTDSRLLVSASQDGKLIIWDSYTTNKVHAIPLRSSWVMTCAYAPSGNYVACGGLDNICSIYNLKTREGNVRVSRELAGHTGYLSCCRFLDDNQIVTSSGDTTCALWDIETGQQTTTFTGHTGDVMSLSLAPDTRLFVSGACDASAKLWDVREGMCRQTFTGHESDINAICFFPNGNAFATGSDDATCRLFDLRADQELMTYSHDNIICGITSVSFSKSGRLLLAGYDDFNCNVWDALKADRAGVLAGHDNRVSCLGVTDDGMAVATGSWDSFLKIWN
T1 sequence (P63212 2-68 limits assumed): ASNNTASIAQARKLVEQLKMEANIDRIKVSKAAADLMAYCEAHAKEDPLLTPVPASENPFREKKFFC

Structure (SMILES): O=C(O)C1CCCCC1c1c2ccc(=O)c(O)c-2oc2c(O)c(O)ccc12 (stereo not shown) [Compound M119, cyclohexanecarboxylic acid, 2-(4,5,6-trihydroxy-3-oxo-3H-xanthen-9-yl)-(9cl)]
- number of vertical jumps in the 15-min counting period [1]: 23±14
- effect on fMLP-induced activation of ERK1 and ERK2 [2]: did not block
- effect on fMLP-induced activation of ERK1 and ERK2 ([2]; listed as NSC119910): without interfering
- effect on direct binding of bGβ1γ2 to PLCβ3 (PLCβ3-bGβ1γ2 interaction): inhibited

Source: patent publication US8975259B2, “Compositions and methods for inhibiting G protein signaling” (University of Rochester, priority 2007, dated 2015)
